The source of these data is patent publication US7803803B2, “Tetrahydrofuro[3,2-B] pyrrol-3-ones as cathepsin K inhibitors” (Amura Therapeutics Limited, priority 2007, dated 2010).

Series [1] can be described thus: Plasma incubations (human plasma stability). Further: tested at 25 µM. Format: in vitro ADME. The settings on record: 37° C.
Procedure: Aliquots were removed at 2 and 60 minutes and quenched with an equal volume of cold acetonitrile. After mixing vigorously, the precipitated protein matter was removed by filtration (Multiscreen Solvinert filter plates, Millipore, Bedford, Mass., USA) and the filtrate analysed by reverse phase HPLC with mass spectrometric detection, using single ion monitoring of the [M+H]^+ species. Metabolic turnover was determined by comparison of peak areas from the ion chromatograms of the parent compound at 2 and 60 minutes and expressed as percent remaining at 1 hour.
Another series in a line: LogD determinations. The settings on record: Ion-count method; for logD at 1 h: 1-octanol/phosphate buffered saline, pH 7.4, pH 7.4. Format: physicochemical.
The next series concerns human osteoclasts. As to the kind of experiment: Human osteoclast resorption assay. Format: cell-based. The settings on record: for inhibition at 1 µM: Homo sapiens, Osteoclast, 48 h, 1 □ M, read-out: Cell-based % Inh. @ 1 □ M Human; for IC50: read-out: Cell-based Human IC50. As to the method: Bone resorption was studied using a model where human osteoclast precursor cells were cultured on bovine bone slices for 9 days and allowed to differentiate into bone-resorbing osteoclasts. The formed mature osteoclasts were then allowed to resorb bone. The assay was performed by Pharmatest Services Ltd, Itäinen Pitkakatu 4C, Turku, Finland. After the culture period, bone collagen degradation products were quantified from the culture medium as an index of bone resorption. Inhibitor compounds were added into the cell cultures after the differentiation period and their effects on the resorbing activity of mature osteoclasts were determined. The studies included a baseline group without added compounds and a positive control group where a potent cathepsin K inhibitor E-64 was added.
Human peripheral blood monocytes were suspended to culture medium and allowed to attach to bovine bone slices. The bone slices were transferred into 96-well tissue culture plates containing culture medium with appropriate amounts of important growth factors favouring osteoclast differentiation, including M-CSF, RANK-ligand and TGF-[…]. The cells were incubated in a CO2 incubator in humidified atmosphere of 95% air and 5% carbon dioxide at 37° C. At day 7 when osteoclast differentiation was complete, the culture medium was replaced with culture medium containing conditions favouring osteoclast activity. The cell culture was continued for an additional 2 days, during which the formed mature osteoclasts were allowed to resorb bone in the presence of vehicle, control inhibitor (E64) or test compounds. At the end of the culture, bone collagen degradation products released into the culture medium were determined using a commercially available ELISA method (CrossLaps® for culture, Nordic Bioscience, Herlev, Denmark) as an index of bone resorption (see Bagger, Y. Z. et al, J. Bone. Miner. Res. 14 (suppl. 1), S370).

Another series concerns the target T1, cathepsin K (Homo sapiens, UniProt P43235).
T1 sequence (P43235 115-329): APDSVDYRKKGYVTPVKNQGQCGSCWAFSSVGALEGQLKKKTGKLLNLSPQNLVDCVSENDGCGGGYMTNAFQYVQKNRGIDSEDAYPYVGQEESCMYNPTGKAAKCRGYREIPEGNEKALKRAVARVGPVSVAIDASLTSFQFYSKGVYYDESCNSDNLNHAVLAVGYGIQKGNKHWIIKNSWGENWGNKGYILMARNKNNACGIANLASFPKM
As to the kind of experiment: In vitro cathepsin Ki inhibition measurements. Format: biochemical. Further details: purchased B. Turk, Josef Stefan Institute, Ljubljana, Slovenia. The settings on record: human recombinant cathepsin K; read-out: In vitro Ki (nM) vs Cath K. As to the method: Stock solutions of substrate or inhibitor were made up to 10 mM in 100% dimethylsulfoxide (DMSO) (Rathburns, Glasgow, U.K.) and diluted as appropriately required. In all cases the DMSO concentration in the assays was maintained at less than 1% (vol./vol.). The equilibrium inhibition constants (Ki^SS) for each compound were measured under steady-state conditions monitoring enzyme activity as a function of inhibitor concentration. The values were calculated on the assumption of pure competitive behaviour (Cornish-Bowden, A. Fundamentals of enzyme kinetics Portland Press; 1995, 93-128). Human recombinant cathepsin K (0.25 nM final; B. Turk, Josef, Stefan Institute, Ljubljana, Slovenia), was routinely assayed in 100 mM sodium acetate; pH 5.5 containing 1 mM EDTA, 10 mM L-cysteine and 1.8 μM Z-Leu-Arg-AMC ([S]═KM).
The apparent inhibition constant (Ki) for each compound was determined on the basis that inhibition was reversible and occurred by a pure-competitive mechanism. The Ki values were calculated, from the dependence of enzyme activity as a function of inhibitor concentration, by direct regression analysis (Prism v 3.02) using Equation 2 (Cornish-Bowden, A., 1995).
In situations where the apparent dissociation constant (Ki^app) approached the enzyme concentrations, the Ki^app values were calculated using a quadratic solution in the form described by Equation 3 (Morrison, J. F. Trends Biochem. Sci., 7, 102-105, 1982; Morrison, J. F. Biochim. Biophys. Acta, 185, 269-286, 1969; Stone, S. R. and Hofsteenge, J. Biochemistry, 25, 4622-4628, 1986).
Curves were fitted by non-linear regression analysis (Prism) using a fixed value for the enzyme concentration. Equation 4 was used to account for the substrate kinetics, where ‘Ki’ is the inhibition constant, ‘[So]’ is the initial substrate concentration and ‘KM^app’ is the apparent macroscopic binding (Michaelis) constant for the substrate (Morrison, 1982).

Each structure is given as a SMILES string.

Procedure for LogD determinations: LogD(PBS) determinations were performed in 96 well microtitre plates using a miniaturised “shake-flask” method. […] The plates were then capped and mixed vigorously for 1 hour on a microtitre plate shaker, after which they were left to stand, allowing the PBS and octanol phases to separate. The PBS layer was analysed by reverse phase HPLC with mass spectrometric detection, using single ion monitoring of the [M+H]^+ species.
Where AUCstd and AUCpbs are the peak areas from the standard and test ion chromatograms respectively.

Regarding `COCCN1CCN(c2ccc(C(=O)N[C@@H](CC(C)C)C(=O)N3C[C@@H](O)[C@H]4OCC(=O)[C@H]43)cc2)CC1` [Example 26, N—((S)-1-((3aS,6R,6aS)-6-hydroxy-3-oxodihydro-2H-furo[3,2-b]pyrrol-4(5H,6H,6aH)-yl)-4-methyl-1-oxopentan-2-yl)-4-(4-(2-methoxyethyl)piperazin-1-yl)benzamide], the “Human Plasma Stability % rem. @ 1 h” value in series [1] is 95%. Also, the “LogD pH 7.4” value in “LogD determinations” came to 0.23. Further, the inhibition at 1 µM in the series on human osteoclasts lay within 25 to 54%. At cathepsin K, the Ki (usually the dissociation constant of the complex between target and ligand, obtained from inhibition or displacement) amounted to 8.1 nM.

In the case of `CCCN1CCC(c2ccc(C(=O)N[C@@H](CC(C)(C)C)C(=O)N3C[C@@H](OC)[C@H]4OCC(=O)[C@H]43)cc2)CC1` [Example 38, N—((S)-1-((3aS,6R,6aS)-6-methoxy-3-oxodihydro-2H-furo[3,2-b]pyrrol-4(5H,6H,6aH)-yl)-4,4-dimethyl-1-oxopentan-2-yl)-4-(1-propylpiperidin-4-yl)benzamide], the “Human Plasma Stability % rem. @ 1 h” value in series [1] is 99%. Besides, in the series “LogD determinations”, the logD (as a rule, lipophilicity at a set pH, counting ionised and neutral species) at 1 h is greater than 0.8; the “LogD pH 7.4” value is given as 1.12. Also, the inhibition at 1 µM in the series on human osteoclasts was 63 to 88%. Also, the Ki on cathepsin K was found to be 8.2 nM.

As for `COCCN1CCN(c2ccc(C(=O)N[C@@H](CC(C)C)C(=O)N3C[C@@H](OC)[C@H]4OCC(=O)[C@H]43)cc2)CC1` [Example 28, N—((S)-1-((3aS,6R,6aS)-6-methoxy-3-oxodihydro-2H-furo[3,2-b]pyrrol-4(5H,6H,6aH)-yl)-4-methyl-1-oxopentan-2-yl)-4-(4-(2-methoxyethyl)piperazin-1-yl)benzamide], the “Human Plasma Stability % rem. @ 1 h” value in series [1] was 88%. Also, in the series “LogD determinations”, the “LogD pH 7.4” value worked out at 0.76. For the same compound, the inhibition at 1 µM in the series on human osteoclasts lay in the range of 25 to 54%. The inhibitory constant (Ki) on cathepsin K was 14.4 nM.

With `CCN1CCN(c2ccc(C(=O)N[C@@H](CC(C)C)C(=O)N3C[C@H](OC)[C@H]4OCC(=O)[C@H]43)cc2)CC1` [Example 5, 4-(4-ethylpiperazin-1-yl)-N—((S)-1-((3aS,6S,6aS)-6-methoxy-3-oxodihydro-2H-furo[3,2-b]pyrrol-4(5H,6H,6aH)-yl)-4-methyl-1-oxopentan-2-yl)benzamide], in series [1], the “Human Plasma Stability % rem. @ 1 h” value was determined as 96%. Also, in the series “LogD determinations”, the logD at 1 h was greater than 0.8 and the “LogD pH 7.4” value turned out to be 1.05. For the same compound, the inhibition at 1 µM with human osteoclasts lay in the range of 63 to 88%. Also, the Ki at cathepsin K was found to be 5.8 nM.

For `CO[C@H]1CN(C(=O)[C@H](CC(C)(C)C)NC(=O)c2ccc(N3CCN(C)CC3)cc2)[C@@H]2C(=O)CO[C@H]12` [Example 2, N—((S)-1-((3aS,6S,6aS)-6-methoxy-3-oxodihydro-2H-furo[3,2-b]pyrrol-4(5H,6H,6aH)-yl)-4,4-dimethyl-1-oxopentan-2-yl)-4-(4-methylpiperazin-1-yl)benzamide], the “Human Plasma Stability % rem. @ 1 h” value in series [1] is 93%. Moreover, in “LogD determinations”, the logD at 1 h is greater than 0.8 and the “LogD pH 7.4” value is reported as 1.00. Besides, the inhibition at 1 µM in the series with human osteoclasts fell in the range of 63 to 88%. Further, at cathepsin K, the Ki worked out at 6.3 nM.

Take `CCN1CCN(c2ccc(C(=O)N[C@H](C(=O)N3C[C@@H](OC)[C@H]4OCC(=O)[C@H]43)C3CCCC3)cc2)CC1`: in series [1], the “Human Plasma Stability % rem. @ 1 h” value stood at 90.7%. In the series “LogD determinations”, this compound showed a logD at 1 h of 0.95. Besides, the IC50 (commonly the concentration needed to halve the response being measured) with human osteoclasts is 231 nM. The inhibitory constant (Ki) on cathepsin K was determined as 3.4 nM.

Regarding `COCCN1CCN(c2ccc(C(=O)N[C@@H](CC(C)C)C(=O)N3C[C@H](OC)[C@H]4OCC(=O)[C@H]43)cc2)CC1` [Example 27, N—((S)-1-((3aS,6S,6aS)-6-methoxy-3-oxodihydro-2H-furo[3,2-b]pyrrol-4(5H,6H,6aH)-yl)-4-methyl-1-oxopentan-2-yl)-4-(4-(2-methoxyethyl)piperazin-1-yl)benzamide], the “Human Plasma Stability % rem. @ 1 h” value in series [1] is given as 99%. In the series “LogD determinations”, the pH-dependent lipophilicity (logD) at 1 h is greater than 0.8 and the “LogD pH 7.4” value stood at 1.23. The inhibition at 1 µM in the series on human osteoclasts lay in the range of 63 to 88%. Further, the Ki on cathepsin K stood at 6.3 nM.

For `CO[C@@H]1CN(C(=O)[C@@H](NC(=O)c2ccc(N3CCN(C)CC3)cc2)C2CCCC2)[C@@H]2C(=O)CO[C@@H]21`, the “Human Plasma Stability % rem. @ 1 h” value in series [1] worked out at 91.8%. Besides, in “LogD determinations”, the logD at 1 h was found to be 0.75. Besides, in the series with human osteoclasts, the 50% inhibitory concentration (IC50) was determined as 637 nM. Moreover, the inhibitory constant (Ki) at cathepsin K was found to be 4.9 nM.

`CO[C@@H]1CN(C(=O)[C@H](CC(C)(C)C)NC(=O)c2ccc(N3CCN(C(C)C)CC3)cc2)[C@@H]2C(=O)CO[C@@H]21` [Example 22, 4-(4-isopropylpiperazin-1-yl)-N—((S)-1-((3aS,6R,6aS)-6-methoxy-3-oxodihydro-2H-furo[3,2-b]pyrrol-4(5H,6H,6aH)-yl)-4,4-dimethyl-1-oxopentan-2-yl)benzamide]: the “Human Plasma Stability % rem. @ 1 h” value in series [1] is recorded as 91%. Besides, in the series “LogD determinations”, the logD at 1 h was greater than 0.8 and the “LogD pH 7.4” value came out at 1.2. Moreover, in the series with human osteoclasts, the inhibition at 1 µM was 63 to 88%. Moreover, on cathepsin K, the inhibition constant Ki was found to be 8.4 nM.

As for `CO[C@@H]1CN(C(=O)[C@H](CC(C)(C)C)NC(=O)c2ccc(N3CCN(C)CC3)cc2)[C@@H]2C(=O)CO[C@@H]21` [Example 4, N—((S)-1-((3aS,6R,6aS)-6-methoxy-3-oxodihydro-2H-furo[3,2-b]pyrrol-4(5H,6H,6aH)-yl)-4,4-dimethyl-1-oxopentan-2-yl)-4-(4-methylpiperazin-1-yl)benzamide], the “Human Plasma Stability % rem. @ 1 h” value in series [1] is 89%. In addition, in “LogD determinations”, the logD at 1 h is greater than 0.8 and the “LogD pH 7.4” value is 0.84. Further, the inhibition at 1 µM with human osteoclasts was in the range of 63 to 88%. Moreover, the Ki at cathepsin K was 5.6 nM.

For the compound `CCCN1CCN(c2ccc(C(=O)N[C@@H](CC(C)C)C(=O)N3C[C@@H](OC)[C@H]4OCC(=O)[C@H]43)cc2)CC1` [Example 15, N—((S)-1-((3aS,6R,6aS)-6-methoxy-3-oxodihydro-2H-furo[3,2-b]pyrrol-4(5H,6H,6aH)-yl)-4-methyl-1-oxopentan-2-yl)-4-(4-propylpiperazin-1-yl)benzamide], the “Human Plasma Stability % rem. @ 1 h” value in series [1] is reported as 92%. Besides, in “LogD determinations”, the logD at 1 h is greater than 0.8 and the “LogD pH 7.4” value is 1.34. In the series with human osteoclasts, the inhibition at 1 µM lay in the range of 63 to 88%. For the same compound, the Ki on cathepsin K turned out to be 16.3 nM.

In the case of `CCCN1CCN(c2ccc(C(=O)N[C@@H](CC(C)(C)C)C(=O)N3C[C@@H](OC)[C@H]4OCC(=O)[C@H]43)cc2)CC1` [Example 16, N—((S)-1-((3aS,6R,6aS)-6-methoxy-3-oxodihydro-2H-furo[3,2-b]pyrrol-4(5H,6H,6aH)-yl)-4,4-dimethyl-1-oxopentan-2-yl)-4-(4-propylpiperazin-1-yl)benzamide], the “Human Plasma Stability % rem. @ 1 h” value in series [1] is 97%. Besides, in “LogD determinations”, the “LogD pH 7.4” value stood at 1.69. Further, the inhibition at 1 µM in the series with human osteoclasts was in the range of 63 to 88%. The Ki on cathepsin K was 3.7 nM.

`COCCN1CCN(c2ccc(C(=O)N[C@@H](CC(C)C)C(=O)N3C[C@H](N)[C@H]4OCC(=O)[C@H]43)cc2)CC1` [Example 23, N—((S)-1-((3aS,6S,6aR)-6-amino-3-oxodihydro-2H-furo[3,2-b]pyrrol-4(5H,6H,6aH)-yl)-4-methyl-1-oxopentan-2-yl)-4-(4-(2-methoxyethyl)piperazin-1-yl)benzamide]: the “Human Plasma Stability % rem. @ 1 h” value in series [1] was found to be 88%. In the series “LogD determinations”, the “LogD pH 7.4” value amounted to 0.55. The inhibition at 1 µM in the series with human osteoclasts fell in the range of 25 to 54%. Moreover, the Ki on cathepsin K is 11.2 nM.
